Tested on: tumors from Prkci^fl/fl Prkcz^fl/fl Villin-cre (DKO) mice
Experiment: scRNAseq and IHC of DKO mouse intestinal tumors treated with PVHA or Galunisertib
Type: in vivo
Protocol: FIG. 3A illustrates the experimental design: Prkci^fl/flPrkcz^fl/fl (DKO) mice were treated either with PVHA (0.0375 mg/Kg twice per week) or Galunisertib (10 mg twice daily) as described. Intestinal tumors were analyzed by scRNAseq.
To identify the mechanism of action of PVHA in the treatment of CMS4 tumors, scRNAseq was performed using 10× Genomics Chromium platform on tumors from Prkci^fl/fl Prkcz^fl/fl Villin-cre (DKO) mice (n=5) treated with PVHA for 14 weeks (n=3), as compared to those treated with Galunisertib (GAL) for 17 weeks (n=3), as shown in experimental design (FIG. 3A). Unsupervised clustering identified tumor and normal epithelial cells as well as stromal and immune cells with selective markers for each population (FIGS. 3B-3C). […] Among tumor clusters (0,4,6), a cell population with transcriptomic similarities to the recently identified “revival stem cells” (RSC; high Clu) in the vehicle treated tumors was identified (FIGS. 3F-3G).

Compound: Cc1cccc(-c2nn3c(c2-c2ccnc4ccc(C(N)=O)cc24)CCC3)n1 [GAL, Galunisertib, reference compound]
- Cd8 T cells, cell type proportion (scRNAseq T cells): increase
- fibroblast clusters associated with human CRC (Grem1/Sfrp1, Igf1/Cxcl14), CMS4 subtype (Sfrp2) and tumor initiation (Ptgs2/Spp1) (scRNAseq cell-type proportion): complete elimination
- tumoral goblet population (scRNAseq goblet cells): reduction
- T cells, cell-type proportion (scRNAseq immune cells): increase
- myeloid cells, cell-type proportion (scRNAseq immune cells): decrease
- TAN1 (anti-tumoral neutrophils) (scRNAseq myeloid cells): only increased
- TAN2 (pro-tumoral neutrophils) (scRNAseq myeloid cells): without affecting
- percentage of stromal and immune cells (scRNAseq, PVHA 0.0375 mg/Kg twice per week, 14 weeks, Galunisertib 10 mg twice daily, 17 weeks): decreased
- number of stromal cells (scRNAseq, without apparent changes in cell-type proportions): reduced

From US20240377400A1, “METHODS FOR TREATING A SUBTYPE OF COLORECTAL CANCER” (Cornell University, priority 2021, published 2024)
